Consider eight compounds from US5705190A, “Controlled release formulation for poorly soluble basic drugs” (Abbott Laboratories, priority 1995, dated 1998).

Read-outs that look alike come from different tables or passages of the source.

For data set [1] the following is noted: cited from earlier work.
The conditions of data set [2]: in vivo.

As to `CC[C@H]1OC(=O)[C@H](C)[C@@H](O[C@H]2C[C@@](C)(OC)[C@@H](O)[C@H](C)O2)[C@H](C)[C@@H](O[C@@H]2O[C@H](C)C[C@H](N(C)C)[C@H]2O)[C@](C)(OC)C[C@@H](C)C(=O)[C@H](C)[C@@H](O)[C@]1(C)O` [clarithromycin], the “water solubility (1 part of drug in the number of parts of water)” value in data set [1] (1 part drug in x parts water, a higher number is a lower solubility) is ~1,000 parts of water. In addition, the “solubility in the stomach” value in data set [1] (pH 1.2) is “very soluble”. Moreover, the “solubility in the upper region of the small intestine” value in data set [1] (pH 5.0) was “fairly soluble”. For the same compound, the “solubility in the lower intestine” value in data set [1] (pH 6 to 8) is reported as “solubility decreases”.
Take `CC[C@H]1OC(=O)[C@H](C)[C@@H](O[C@H]2C[C@@](C)(OC)[C@@H](O)[C@H](C)O2)[C@H](C)[C@@H](O[C@@H]2O[C@H](C)C[C@H](N(C)C)[C@H]2O)[C@](C)(O)C[C@@H](C)C(=O)[C@H](C)[C@@H](O)[C@]1(C)O` [erythromycin]: the “reproducibly bioavailable controlled release formulations” value in data set [2] is “not possible”. The “water solubility (1 part of drug in the number of parts of water)” value in data set [1] (water) is 1,000 parts of water.
In the case of `CCC(=O)O[C@@H]1CC(=O)O[C@H](C)C/C=C/C=C/[C@H](O)[C@H](C)C[C@H](CC=O)[C@H](O[C@@H]2O[C@H](C)[C@@H](O[C@H]3C[C@@](C)(O)[C@@H](OC(=O)CC)[C@H](C)O3)[C@H](N(C)C)[C@H]2O)[C@H]1OC` [midecamycin], the “water solubility in words” value in data set [1] (water) is reported as “very slightly soluble in water”.
Regarding `Cc1ncc([N+](=O)[O-])n1CCO` [metronidazole], in data set [1] (water), the “water solubility (1 part of drug in the number of parts of water)” value is 100-1,000 parts of water.
With `CC[C@H]1OC(=O)C[C@@H](O)[C@H](C)[C@@H](O[C@@H]2O[C@H](C)[C@@H](O[C@H]3C[C@@](C)(O)[C@@H](O)[C@H](C)O3)[C@H](N(C)C)[C@H]2O)[C@@H](CC=O)C[C@@H](C)C(=O)/C=C/C(C)=C/[C@@H]1CO[C@@H]1O[C@H](C)[C@@H](O)[C@@H](OC)[C@H]1OC` [tylosin], the “water solubility (1 part of drug in the number of parts of water)” value in data set [1] (water) is listed as 100-1,000 parts of water.
`CO[C@@H]1[C@@H](O[C@@H]2O[C@H](C)[C@@H](O[C@H]3C[C@@](C)(O)[C@@H](OC(=O)CC(C)C)[C@H](C)O3)[C@H](N(C)C)[C@H]2O)[C@@H](CC=O)C[C@@H](C)[C@@H](O)/C=C/C=C/C[C@@H](C)OC(=O)C[C@H]1OC(C)=O` [josamycin]: the “water solubility (1 part of drug in the number of parts of water)” value in data set [1] (water) is listed as 1,000-10,000 parts of water.
In the case of kitasamycin, the “water solubility (1 part of drug in the number of parts of water)” value in data set [1] (water) is 1,000-10,000 parts of water.
Regarding `CC1Cc2ccccc2N1NC(=O)c1ccc(Cl)c(S(N)(=O)=O)c1` (stereo not drawn) [indapamide], in data set [1] (water), the “water solubility (1 part of drug in the number of parts of water)” value is “more than 10,000 parts of water”.
